Assay results reported in the supplement of paper PMC11424490.

Key:
[1] = tested on: NCI-H358; test: combination cScore with adagrasib (Bliss gap around IC50) (%PoC); higher = stronger additive effect
How it was run: (§1)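 NCI-H2122, NCI-H358 and SW837 cells (500 or 800 per well, 384-well plates) were dosed in concentration matrices after 24 h and grown 72 h, or 144 h for SW837. CellTiter-Glo luminescence was normalised to vehicle wells as percent of control and fitted with four-parameter curves. The score averages the Bliss-independence gap (expected minus measured viability) over a field around both monotherapy IC50s, or at the top concentrations when no IC50 was reached.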

[2] = tested on: NCI-H2122; test: as above
How it was run: as §1

[3] = tested on: SW837; test: as above
How it was run: as §1

[4] = tested on: NCI-H358; test: combination cScore with sotorasib (Bliss gap around IC50) (%PoC); higher = stronger additive effect
How it was run: as §1

[5] = tested on: NCI-H2122; test: as above
How it was run: as §1

[6] = tested on: SW837; test: as above
How it was run: as §1

SMILES | combination cScore with adagrasib [1] | combination cScore with adagrasib [2] | combination cScore with adagrasib [3] | combination cScore with sotorasib [4] | combination cScore with sotorasib [5] | combination cScore with sotorasib [6]
CC(C)N(CCCNC(=O)Nc1ccc(C(C)(C)C)cc1)C[C@H]1O[C@@H](n2ccc3c(N)ncnc32)[C@H](O)[C@@H]1O + C=C(F)C(=O)N1CCN(c2nc(OC[C@@H]3CCCN3C)nc3c2CCN(c2cccc4cccc(Cl)c24)C3)C[C@@H]1CC#N [adagrasib] | 9.87 | 19.1 | 2.74 | – | – | –
CNS(=O)(=O)Nc1nccc(Cc2c(C)c3ccc(Oc4ncccn4)cc3oc2=O)c1F + C=C(F)C(=O)N1CCN(c2nc(OC[C@@H]3CCCN3C)nc3c2CCN(c2cccc4cccc(Cl)c24)C3)C[C@@H]1CC#N [adagrasib] | 3.4 | 9.73 | 3.07 | – | – | –
COc1ncc(-c2ccc3nccc(-c4ccnnc4)c3c2)cc1NS(=O)(=O)c1ccc(F)cc1F + C=C(F)C(=O)N1CCN(c2nc(OC[C@@H]3CCCN3C)nc3c2CCN(c2cccc4cccc(Cl)c24)C3)C[C@@H]1CC#N [adagrasib] | 5.98 | 23.1 | 4.03 | – | – | –
C[C@@H]1CN(CC(=O)Nc2ccc3c(c2)Cc2cccc(-c4cc(=O)cc(N5CCOCC5)o4)c2S3)C[C@H](C)O1 + C=C(F)C(=O)N1CCN(c2nc(OC[C@@H]3CCCN3C)nc3c2CCN(c2cccc4cccc(Cl)c24)C3)C[C@@H]1CC#N [adagrasib] | 6.62 | 18.9 | 3.63 | – | – | –
Cc1c(-c2c(-c3ccc(F)o3)sc3ncnc(O[C@H](Cc4ccccc4OCc4ccnn4CC(F)(F)F)C(=O)O)c23)ccc(OCCN2CCN(C)CC2)c1Cl + C=C(F)C(=O)N1CCN(c2nc(OC[C@@H]3CCCN3C)nc3c2CCN(c2cccc4cccc(Cl)c24)C3)C[C@@H]1CC#N [adagrasib] | 5.46 | 8.13 | 4.73 | – | – | –
Cc1c(Cn2c(C)nc3c(C(=O)O)cc(N4CCOCC4)cc32)cccc1C(F)(F)F + C=C(F)C(=O)N1CCN(c2nc(OC[C@@H]3CCCN3C)nc3c2CCN(c2cccc4cccc(Cl)c24)C3)C[C@@H]1CC#N [adagrasib] | -4.04 | 8.98 | -1.49 | – | – | –
Cc1cc(C)c(CNC(=O)c2cc(-c3ccc(N4CCNCC4)nc3)cc3c2c(C)cn3C2CCCC2)c(=O)[nH]1 + C=C(F)C(=O)N1CCN(c2nc(OC[C@@H]3CCCN3C)nc3c2CCN(c2cccc4cccc(Cl)c24)C3)C[C@@H]1CC#N [adagrasib] | 5.44 | 20.3 | -0.2 | – | – | –
Cc1nc(Nc2n[nH]c3c2CN(C(=O)N[C@H](CN(C)C)c2ccccc2)C3(C)C)c2sccc2n1 + C=C(F)C(=O)N1CCN(c2nc(OC[C@@H]3CCCN3C)nc3c2CCN(c2cccc4cccc(Cl)c24)C3)C[C@@H]1CC#N [adagrasib] | -5.91 | 8.47 | -0.72 | – | – | –
O=C(C1CC1)N1CC[C@@H](Cn2c(-c3ccc(-c4ccc5occc5c4)cc3)nc3cnccc32)C1 + C=C(F)C(=O)N1CCN(c2nc(OC[C@@H]3CCCN3C)nc3c2CCN(c2cccc4cccc(Cl)c24)C3)C[C@@H]1CC#N [adagrasib] | 7.72 | 7.98 | 7.68 | – | – | –
O=c1cc(-c2cccc3c2Sc2ccccc2S3)oc(N2CCOCC2)c1 + C=C(F)C(=O)N1CCN(c2nc(OC[C@@H]3CCCN3C)nc3c2CCN(c2cccc4cccc(Cl)c24)C3)C[C@@H]1CC#N [adagrasib] | 7.9 | 12.4 | 4.85 | – | – | –
CC1(C)CCC(c2ccc(Cl)cc2)=C(CN2CCN(c3ccc(C(=O)NS(=O)(=O)c4ccc(N[C@H](CCN5CCOCC5)CSc5ccccc5)c(S(=O)(=O)C(F)(F)F)c4)cc3)CC2)C1 [ABT-263] + C=C(F)C(=O)N1CCN(c2nc(OC[C@@H]3CCCN3C)nc3c2CCN(c2cccc4cccc(Cl)c24)C3)C[C@@H]1CC#N [adagrasib] | 6.81 | 12.1 | 30.9 | – | – | –
COc1cc(CCc2cc(NC(=O)c3ccc(N4CC(C)NC(C)C4)cc3)n[nH]2)cc(OC)c1 (configuration not stated) [AZD4547] + C=C(F)C(=O)N1CCN(c2nc(OC[C@@H]3CCCN3C)nc3c2CCN(c2cccc4cccc(Cl)c24)C3)C[C@@H]1CC#N [adagrasib] | -1.38 | 11.3 | 5.13 | – | – | –
CCN(CCCOc1ccc2c(Nc3cc(CC(=O)Nc4cccc(F)c4)[nH]n3)ncnc2c1)CCOP(=O)(O)O [AZD-1152] + C=C(F)C(=O)N1CCN(c2nc(OC[C@@H]3CCCN3C)nc3c2CCN(c2cccc4cccc(Cl)c24)C3)C[C@@H]1CC#N [adagrasib] | 2.1 | 12.7 | 4.03 | – | – | –
CCN1CCN(Cc2ccc(Nc3ncc(F)c(-c4cc(F)c5nc(C)n(C(C)C)c5c4)n3)nc2)CC1 [Abemaciclib] + C=C(F)C(=O)N1CCN(c2nc(OC[C@@H]3CCCN3C)nc3c2CCN(c2cccc4cccc(Cl)c24)C3)C[C@@H]1CC#N [adagrasib] | 4.46 | 5.55 | 12.5 | – | – | –
CN(C)C/C=C/C(=O)Nc1cc2c(Nc3ccc(F)c(Cl)c3)ncnc2cc1O[C@H]1CCOC1 [Afatinib] + C=C(F)C(=O)N1CCN(c2nc(OC[C@@H]3CCCN3C)nc3c2CCN(c2cccc4cccc(Cl)c24)C3)C[C@@H]1CC#N [adagrasib] | 11.5 | 11.1 | 21.2 | – | – | –
COc1cc2nc(C)nc(N[C@H](C)c3cc(N)cc(C(F)(F)F)c3)c2cc1O[C@H]1CCOC1 [BI-3406 (SOSi)] + C=C(F)C(=O)N1CCN(c2nc(OC[C@@H]3CCCN3C)nc3c2CCN(c2cccc4cccc(Cl)c24)C3)C[C@@H]1CC#N [adagrasib] | 10.7 | 28 | 19.4 | – | – | –
Nc1cc(C(F)(F)F)c(-c2cc(N3CCOCC3)nc(N3CCOCC3)n2)cn1 [BKM120] + C=C(F)C(=O)N1CCN(c2nc(OC[C@@H]3CCCN3C)nc3c2CCN(c2cccc4cccc(Cl)c24)C3)C[C@@H]1CC#N [adagrasib] | 2.43 | 12.9 | 9.24 | – | – | –
CCc1c2c(nc3ccc(O)cc13)-c1cc3c(c(=O)n1C2)COC(=O)[C@]3(O)CC [SN-38] + C=CC(=O)N1CCN(c2nc(=O)n(-c3c(C)ccnc3C(C)C)c3nc(-c4c(O)cccc4F)c(F)cc23)[C@@H](C)C1 [sotorasib] | – | – | – | 2.64 | 11.8 | 2.7
C[C@@H]1OCC2(CCN(c3cnc(Sc4ccnc(N)c4Cl)c(N)n3)CC2)[C@@H]1N [TNO155] + C=CC(=O)N1CCN(c2nc(=O)n(-c3c(C)ccnc3C(C)C)c3nc(-c4c(O)cccc4F)c(F)cc23)[C@@H](C)C1 [sotorasib] | – | – | – | 10.6 | 41.9 | 41.3
CC/C(=C(\c1ccccc1)c1ccc(OCCN(C)C)cc1)c1ccccc1 [Tamoxifen] + C=CC(=O)N1CCN(c2nc(=O)n(-c3c(C)ccnc3C(C)C)c3nc(-c4c(O)cccc4F)c(F)cc23)[C@@H](C)C1 [sotorasib] | – | – | – | 2.01 | 11.1 | 0.835
Cc1nc(-c2cn3c(n2)-c2ccc(-c4cnn(C(C)(C)C(N)=O)c4)cc2OCC3)n(C(C)C)n1 [Taselisib] + C=CC(=O)N1CCN(c2nc(=O)n(-c3c(C)ccnc3C(C)C)c3nc(-c4c(O)cccc4F)c(F)cc23)[C@@H](C)C1 [sotorasib] | – | – | – | 7.14 | 25.3 | 32.8
COc1cc2/c(=N/c3ccc(Br)cc3F)nc[nH]c2cc1OCC1CCN(C)CC1 [Vandetanib] + C=CC(=O)N1CCN(c2nc(=O)n(-c3c(C)ccnc3C(C)C)c3nc(-c4c(O)cccc4F)c(F)cc23)[C@@H](C)C1 [sotorasib] | – | – | – | 7.76 | 28.4 | 22.6
Oc1nc(-c2ccc(C(F)(F)F)cc2)nc2c1CSCC2 [XAV939] + C=CC(=O)N1CCN(c2nc(=O)n(-c3c(C)ccnc3C(C)C)c3nc(-c4c(O)cccc4F)c(F)cc23)[C@@H](C)C1 [sotorasib] | – | – | – | 7.36 | 14.2 | 7.47
CCNC(=O)C[C@@H]1N=C(c2ccc(Cl)cc2)c2cc(OC)ccc2-n2c(C)nnc21 [iBET-762] + C=CC(=O)N1CCN(c2nc(=O)n(-c3c(C)ccnc3C(C)C)c3nc(-c4c(O)cccc4F)c(F)cc23)[C@@H](C)C1 [sotorasib] | – | – | – | 5.17 | 22.3 | 7.05
